Measurements as given in patent publication US4150970A, “Growth regulator for plants” (Board of Trustees of Michigan State University, priority 1977, dated 1979).
“Also recorded” adds a separate entry of the source.

Experiments:
Assay type in all cases: in vivo
[1] = system: IR-8 rice seedlings; assay: Dry weight and total protein of 18-day-old rice seedlings in light and dark for 24 hours (Examples X and XVII); conditions: for Dry Wt, Entire Plant / Dry Wt, Expanded leaves / Dry Wt, Roots / Dry Wt, Sheaths: 24 hours
Method: (§1) Rice seed cv. IR-8, or Starbonnet was surface treated with 0.1 percent mercuric chloride and planted in 77 cc plastic cups containing vermiculite and watered with one-fourth Hoagland's nutrient solution containing 3 mM of nitrogen at pH 5.0. After 10 days, seedlings were transplanted to 220 cc specimen cups wrapped in aluminum foil and containing 180 cc of the same Hoagland's nutrient solution. Four seedlings were suspended in the solution with a sponge rubber disc. The plants were grown under a 8 h night at 25° C. and a 16 h day at 30° C. with 21 and 8 μwatts per cm^2 in the blue and red spectra respectively. In the test with varying light intensity the high light intensity was 30 13 and the low intensity was 15 and 8 μwatts per cm^2 for the blue and red spectra respectively. The nutrient solution was renewed every 2 or 3 days. After one week the plants were sorted for size and similar sized plants assigned to the same block for the experiment. Prior to the initiation of a test the plants in each cup were assigned treatment numbers by use of a random number table. […] Sixteen hours prior to a test the foil wrapped cups were tared, and filled with one-half Hoaglands solution containing 6 mM nitrogen. Eighteen μl of chloroform or chloroform containing 1.8 μg triacontanol were placed on 2 cm^2 of Whatman No. 1 filter papers, air dried and placed in the specimen cups. This concentration of 10 μg triacontanol/liter was used for all tests described in the following Examples except where specifically indicated to the contrary. Immediately prior to the test the cups were all brought up to 180 ml. including a set of cups without plants to measure evaporation.
(§2) Plants were placed in 20×32 cm glass jars fitted with gas inlet and outlet ports. Three jars containing 2 cups each were used for a total of 24 plants for each treatment. The plants were ventilated with air or freed of CO2 by passing it through ascarite and then humidified. The flow rate was approximately 300 ml/minute. Carbon dioxide-free air was also used to purge the appropriate jars during a two minute period required to place the plants in the jars. The N analyses were done by the automated micro-Kjelldahl procedure of Ferrari (1960).
Using the materials and procedures set forth above, dry weight and total protein (nitrogen) content of 18-day-old "IR-8" rice seedlings grown in light and dark for 24 hours with or without triacontanol was determined. Table X sets forth the results:
This example was run to determine the percent change in dry weight of whole 18-day-old "IR-8" rice seedlings treated with triacontanol in the light and dark over a 24 hour period expressed as percent change from zero time. The dry weight at zero time was 50.8 mg per seedling.

[2] = system: IR-8 rice seedlings; assay: Percent change in dry weight of rice seedlings in the dark (Example XVIII); conditions: 0.01 mg/l
Method: as §1
This example was run to determine the percent change in dry weight of whole 15-day-old "IR-8" rice seedlings treated with triacontanol in the dark as compared with a control. The dry weight at zero time was 37.3 mg per seedling. […]

[3] = system: IR-8 rice seedlings; assay: Total protein content of rice seedlings grown in the dark for six hours (Example VIII)
Method: as §1
Plants were placed in 20×32 cm glass jars fitted with gas inlet and outlet ports. Three jars containing 2 cups each were used for a total of 24 plants for each treatment. The plants were ventilated with air or freed of CO2 by passing it through ascarite and then humidified. The flow rate was approximately 300 ml/minute. […]
The total protein (nitrogen) content of 17 day old "IR-8" rice seedlings was determined, where […]

[4] = system: Coho barley seedlings; assay: Barley seedlings, triacontanol solutions applied to soil (Example XV)
Text: To study the growth of 25-day-old "Coho" barley seedlings treated with triacontanol solutions applied to the soil in the greenhouse. Treatments were started when seedlings were 13 days old.

[5] = system: IR-8 rice seedlings; assay: Single versus multiple applications on rice seedlings (Example XI)
Method: as §1
Water uptake was measured by weighing the cups after removal of the plants and subtracting the tare and the water evaporated. For tests continued for more than one day, the solution used was measured every 3 days and new Hoagland's added and the pH maintained at 5.0 with sulfuric acid.
In this Example, the experiment determined the growth of "IR-8" rice seedlings by comparing a single application of triacontanol with multiple applications of triacontanol. Triacontanol was applied at the beginning of each indicated period.

[6] = system: plants; assay: Plant growth regulation (general statement); conditions: crops
[7] = system: IR-8 rice seedlings; assay: Dry weight of rice seedlings in the dark with and without carbon dioxide (Example VII)
Method: as §1
In the tests comparing dry weight accumulation in plants grown either in the absence of CO2 or in normal air were grown as previously described except the test was initiated at the end of the 16 hour light period.
as §2
To determine the response of rice seedlings grown in the dark with and without carbon dioxide, 17 day old "IR-8" rice seedlings were grown in the dark for 6 hours. All the parameters of CO2 vs no CO2 and of triacontanol vs no triacontanol were run. The testing procedures were described above.

CCCCCCCCCCCCCCCCCCCCCCCCCCCCCCO [Triacontanol, 1-triacontanol]
dry weight in the dark versus dark controls ([1]; dark, 6- and 24-hour harvests): gained significantly more weight than the dark controls | Dry Wt, Entire Plant ([1]; dark): 55.0 mg/plant | Dry Wt, Expanded leaves ([1]; dark): 22.0 mg/plant | Dry Wt, Roots ([1]; dark): 20.3 mg/plant | Dry Wt, Sheaths ([1]; dark): 12.8 mg/plant | Dry Wt, Entire Plant ([1]; light): 72.9 mg/plant | Dry Wt, Expanded leaves ([1]; light): 30.3 mg/plant | Dry Wt, Roots ([1]; light): 24.6 mg/plant | Dry Wt, Sheaths ([1]; light): 18.0 mg/plant | Dry Weight (percent change) ([2]; 1 hour): 4% | Dry Weight (percent change) ([2]; 3 hours): 6% | Dry Weight (percent change) ([2]; 6 hours): 10% | higher concentration of total protein in 4th leaf than the control [3]: 11% | total increase in protein per plant versus zero time [3]: 18% | total protein per (4th) leaf [3]: doubling | Seedling wt ([4]; nutrients 0, triacontanol 0.01 mg/L): 275 mg/shoot | Seedling wt ([4]; nutrients 0, triacontanol 0.10 mg/L): 270 mg/shoot | Seedling wt ([4]; nutrients 100 mg 20-20-20/L, triacontanol 0.01 mg/L): 310 mg/shoot | Seedling wt ([4]; nutrients 100 mg 20-20-20/L, triacontanol 0.10 mg/L): 316 mg/shoot | Seedling wt ([4]; nutrients 1000 mg 20-20-20/L, triacontanol 0.01 mg/L): 438 mg/shoot | Seedling wt ([4]; nutrients 1000 mg 20-20-20/L, triacontanol 0.10 mg/L): 442 mg/shoot | Dry wt ([5]; multiple applications): 286 mg/seedling | Water uptake per day ([5]; multiple applications, time period 0-2): 14.2 mL | Water uptake per day ([5]; multiple applications, time period 3-5): 22.6 mL | Water uptake per day ([5]; multiple applications, time period 6-7): 33.5 mL | Water uptake per day ([5]; multiple applications, time period 8-9): 40.2 mL | Water uptake per day ([5]; multiple applications, time period 10-12, two cups dry at harvest): 57.0 mL | Dry wt ([5]; single application): 273 mg/seedling | Water uptake per day ([5]; single application, time period 0-2): 13.9 mL | Water uptake per day ([5]; single application, time period 3-5): 21.0 mL | Water uptake per day ([5]; single application, time period 6-7): 30.0 mL | Water uptake per day ([5]; single application, time period 8-9): 35.8 mL | Water uptake per day ([5]; single application, time period 10-12, two cups dry at harvest): 56.6 mL | application rate that substantially increases crop growth [6]: ≥ 0.4 grams per acre | CO2 fixation in the dark ([7]; dark 6 hours): stimulated rice seedlings to fix CO2 in the dark; also recorded: stimulates plants, such as rice seedlings, to fix CO2 in the dark | Dry Wt, Expanded leaves ([7]; with CO2, dark 6 hours): 26.7 mg/plant | Dry Wt, Roots ([7]; with CO2, dark 6 hours): 25.6 mg/plant | Dry Wt, Whole Plant ([7]; with CO2, dark 6 hours): 71.9 mg/plant | Dry Wt, Expanded leaves ([7]; without CO2, dark 6 hours): 22.4 mg/plant | Dry Wt, Roots ([7]; without CO2, dark 6 hours): 23.2 mg/plant | Dry Wt, Whole Plant ([7]; without CO2, dark 6 hours): 62.0 mg/plant
